One molecule from publication PMC12362585, “Development and Preclinical Characterization of [^18F]H3-2406 and [^18F]H3-2407 for Positron Emission Tomography Imaging of the Histamine Subtype‑3 Receptor” (Journal of Medicinal Chemistry, 2025) can be followed below.

A short description of data set [1]: Log D by shake-flask method. Type of data set: physicochemical. The following applies: n-octanol/PBS. As to the method: To evaluate the binding affinities of compounds 1–9, competitive radioligand binding assays were conducted using [^3H]-AZ13582963 [4-(1S,2S)-2-(4-cyclobutylpiperazine-1-carbonyl)-cyclopropyl)-N-methyl-[2-^3 H]-benzamide]. […]. […]. Further, ACD Percepta predictions indicated these compounds are likely to cross the blood-brain barrier (BBB), as indicated by a log BB > −1 and a multiparameter optimization (MPO) score >4.0. High selectivity toward H3R over other CNS targets is essential for effective H3R PET imaging. Therefore, off-target screenings of compounds 2, 3, and 4 were conducted against various CNS receptors, G protein-coupled receptors (GPCRs), transporters, and ion channels at 10 μM (Figure S1). […]. Sigma-1 receptors, crucial for ion channel function and associated with learning, memory, and pain, , have shown synergy with H3R antagonists, including PF-03654746 and ABT-239, potentially enhancing in vivo efficacy.
The lipophilicity was measured according to previously reported methods. , In brief, PBS and n-octanol were premixed prior to the experiment. A solution containing 0.2 MBq of [^18F]3 or [^18F]4, PBS (3 mL) and n-octanol (3 mL) were prepared in a vial and vortexed for 5 min. The PBS and n-octanol layers were then separated and transferred into a centrifuge tube, followed centrifugation at 12,000 rpm for 5 min. Then PBS (0.5 mL) and n-octanol (0.05 mL) were weight and measured the radioactivity on a γ counter (PerkinElmer Wizard). The Log D values of [ ^18F]3 and [^18F]4 were calculated using the following formula: LogD=Log[(radioactivityn‐octanol/weightn‐octanol)/(radioactivityPBS/weightPBS)]

The nature of data set [2]: Ex vivo whole-body biodistribution. The data set is classed as in vivo. As to conditions: 5 min postadministration, CD1 mice. Here is the method:
To further investigate the whole-body distribution of [^18F]3, ex vivo biodistribution experiments were conducted in CD1 mice at 5-, 15-, 30-, and 60 min postadministration. […] Initially, high levels of radioactivity were detected in the heart, lung, and kidney, with subsequent clearance observed in these organs over time. […] Minimal radioactivity was detected in the blood and bone at all time points throughout the study. […] These findings indicate that our tracer is relatively stable against in vivo defluorination.
A dose of 1.0 MBq of [^18F]3 in 0.1 mL saline was intravenously injected into the tail vein of CD1 mice (5–6 weeks). At various time-points (5-, 15-, 30- and 60 min) postinjection, the mice were sacrificed, and their organs were collected and weighed. The radioactivity of each organ was measured using a γ counter (PerkinElmer Wizard).

The nature of data set [3]: In vitro stability in liver microsomes, humans. The following applies: 90 min. The data set is classed as in vitro ADME. Here is the method:
To assess the stability of [^18F]3, in vitro radioactivity analyses were conducted following 30-, 60- and 90 min coincubation of the radioligand in the serum and liver microsomes from mice, nonhuman primates (NHPs), and humans (Figure ).
Serum from mice, NHPs, and humans were warmed to room temperature, 15 MBq of [^18F]3 was added to 0.4 mL of each species’ serum. The mixtures were incubated at 37 °C and 0.1 mL of mixture was transferred into 0.2 mL cold acetonitrile at 30, 60, and 90 min. The samples were vortexed for 15 s and then centrifuged at 10,000g for 5 min. The supernatant was analyzed using analytical HPLC (Agilent 1100 series HPLC system on Phenomenex Luna C-18 column (4.6 × 150 mm), mobile phase 30% CH3CN/0.1% TFA in water, flow:1 mL/min). For microsomes studies, a mixture of microsomes (0.5 mg/mL), [^18F]3 (15 MBq), 0.35 mL of PBS, 0.05 mL of NADPH regenerating system A, and 0.01 mL of NADPH regenerating system B were incubated at 37 °C. The subsequent steps followed the same procedure as described above.
Background: Microsomes from liver hold many membrane-bound enzymes, among them those of drug oxidation.

As usually defined, the logD is lipophilicity at a set pH, counting ionised and neutral species. Take `O=C([C@H]1C[C@@H]1c1ccc([18F])cc1)N1CCN(C2CCCC2)CC1` [[^18F]3]: the pH-dependent lipophilicity (logD) in data set [1] was found to be 2.82. The brain uptake in data set [2] is 10.9 %ID/g. Moreover, in data set [3], the “parent fraction in liver microsomes” value was found to be 95%.
